Three compounds from patent US10632171B2, “Melanocortin receptor-specific peptides” (Palatin Technologies, Inc., priority 2009, dated 2020) can be followed below.

For experiment [1], the target named is T1, hMC4-R (Homo sapiens (Human), UniProt P32245). Nature of the experiment: Competitive binding assay using Eu-NDP-α-MSH. Conditions: averaged; determined using Eu-NDP-α-MSH (values marked *); read-out: MC4-R Ki. As to the method:
Alternatively, a competitive inhibition binding assay was performed employing Eu-NDP-α-MSH (PerkinElmer Life Sciences catalog No. AD0225) with determination by time-resolved fluorometry (TRF) of the lanthanide chelate. […] After incubation for 90 minutes at 37° C., the reaction was stopped by filtration over AcroWell 96-well filter plates (Pall Life Sciences). The filter plates were washed 4 times with 200 μL of ice-cold phosphate-buffered saline. DELFIA Enhancement solution (PerkinElmer Life Sciences) was added to each well. […] Each assay was conducted in duplicate and mean values were utilized. Ki values were determined by curve-fitting with Graph-Pad Prism® software using a one-site fixed-slope competition binding model.

The target in experiment [2] is T1, hMC4-R. Nature of the experiment: Competitive inhibition binding assay using [I125]-NDP-α-MSH. Conditions: averaged; determined using [I125]-NDP-α-MSH (values not marked *); read-out: MC4-R Ki. As to the method:
A competitive inhibition binding assay is performed using membrane homogenates prepared from HEK-293 cells that express recombinant hMC4-R, hMC3-R, or hMC5-R, and from B-16 mouse melanoma cells (containing endogenous MC1-R). In some instances, HEK-293 cells that express recombinant hMC1-R were employed. In the examples that follow, all MC3-R, MC4-R and MC5-R values are for human recombinant receptors. […] Membrane homogenates were incubated with 0.2 nM (for hMC4-R) 0.4 nM (for MC3-R and MC5-R) or 0.1 nM (for mouse B16 MC1-R or hMC1-R) [I^125]-NDP-α-MSH (Perkin Elmer) and increasing concentrations of test peptides of the present invention in buffer containing 25 mM HEPES buffer (pH 7.5) with 100 mM NaCl, 2 mM CaCl2, 2 mM MgCl2, 0.3 mM 1,10-phenanthroline, and 0.2% bovine serum albumin. After incubation for 60 minutes at 37° C., the assay mixture was filtered and the membranes washed three times with ice-cold buffer. Filters were dried and counted in a gamma counter for bound radioactivity. […] Maximal specific binding (100%) was defined as the difference in radioactivity (cpm) bound to cell membranes in the absence and presence of 1 μM NDP-α-MSH. […] Each assay was conducted in triplicate and the actual mean values are described, with results less than 0% reported as 0%. Ki values for test peptides of the present invention were determined using Graph-Pad Prism® curve-fitting software.

Peptide text beside a SMILES is read from it.

T1 sequence (P32245 whole entry): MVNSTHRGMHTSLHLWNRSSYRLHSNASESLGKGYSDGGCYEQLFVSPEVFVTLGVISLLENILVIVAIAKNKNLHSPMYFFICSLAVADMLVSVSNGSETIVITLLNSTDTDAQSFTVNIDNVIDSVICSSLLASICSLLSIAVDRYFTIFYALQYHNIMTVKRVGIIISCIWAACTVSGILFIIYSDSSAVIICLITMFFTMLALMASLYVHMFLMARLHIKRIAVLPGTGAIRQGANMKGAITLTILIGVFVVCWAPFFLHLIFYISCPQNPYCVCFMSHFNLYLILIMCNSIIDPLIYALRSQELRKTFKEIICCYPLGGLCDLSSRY

The term Ki denotes the equilibrium dissociation constant of an inhibitor or competing ligand from its target. As to `CC(=O)N[C@@H](CCCNC(=N)N)C(=O)N[C@H]1CC(=O)NCCCC[C@@H](C(=O)O)NC(=O)[C@H](Cc2c[nH]c3ccccc23)NC(=O)[C@H](CCCNC(=N)N)NC(=O)[C@@H](Cc2ccccc2)NC(=O)[C@H](C)NC1=O` [compound 52, Ac-Arg-cyclo(Asp-Ala- D-Phe-Arg-Trp-Lys)-OH] (HELM PEPTIDE1{[ac].R.D.A.[dF].R.W.K}$PEPTIDE1,PEPTIDE1,3:R3-8:R3$$$V2.0), the Ki at hMC4-R [1] was determined as 144 nM.

As for `CC(=O)N[C@@H](CCCNC(=N)N)C(=O)N[C@H]1CC(=O)NCCCC[C@@H](C(N)=O)NC(=O)[C@H](Cc2c[nH]c3ccccc23)NC(=O)[C@H](CCCNC(=N)N)NC(=O)[C@@H](Cc2ccccc2)NC(=O)[C@@H]2C[C@@H](O)CN2C1=O` [compound 101, Ac-Arg-cyclo(Glu-Hyp- D-Phe-Arg-Trp-Orn)- NH2], the Ki at hMC4-R [2] was 3 nM. On the same count and under the same terms, in the case of `CC(=O)N[C@@H](CCCNC(=N)N)C(=O)N[C@H]1CC(=O)NCCCC[C@@H](C(N)=O)NC(=O)[C@H](Cc2c[nH]c3ccccc23)NC(=O)[C@H](CCCNC(N)=O)NC(=O)[C@@H](Cc2ccccc2)NC(=O)[C@H](CCCCN)NC1=O` [compound 116, Ac-Arg-cyclo(Asp-Lys- D-Phe-Cit-Trp-Lys)-NH2] (HELM PEPTIDE1{[ac].R.D.K.[dF].[Cit].W.K.[am]}$PEPTIDE1,PEPTIDE1,3:R3-8:R3$$$V2.0) it was 873 nM.
